The results in this text go back to PubChem BioAssay (NCI).

SMILES strings stand for the structures.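 48-hour exposure; five concentrations; linearly interpolated endpoints. Abbreviation: GI50, concentration required for 50% inhibition of growth. TGI: total growth inhibition.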 Bounds are passed on as bounds.

Common to all, as to assay: growth of human tumour cells (NCI), 48 h
The test system of test [1] is OVCAR-5 ovarian.
Test [2] has as its system M19-MEL melanoma.
For test [3], the system named is IGROV1 ovarian.
Test [4] deals with SNB-19 CNS.
In test [5] the test system is 786-0 renal.
The test system of test [6] is SNB-78 CNS.
For test [7], the system named is HOP-62 NSCLC.
Test [8] deals with MALME-3M melanoma.
Test [9] concerns EKVX NSCLC.
In test [10] the test system is SK-MEL-28 melanoma.

On to `O=C(N/N=C/c1cc(Cl)cc(Cl)c1[O-])c1ccccc1.O=C(N/N=C/c1cc(Cl)cc(Cl)c1[O-])c1ccccc1.[Co+2]`, for which the GI50 in test [1] is 46.5 µM; in [2] it was 20.5 µM; in test [3], 27.8 µM; in [4] it was 45 µM; in test [5] it was 10.4 µM; in test [6], 53.2 µM. Further, the GI50 was 24.8 µM in test [7], 33 µM in [8] and 10.3 µM in test [9]. Besides, the TGI in [1], in [2], in test [3], in [4], in test [5] and in test [6] was over 100 µM each time. The TGI in [7], in test [8] and in test [9] was over 100 µM in each case.
With `CCOC(=O)C(CNc1ccc(O)cc1)NC(=O)c1ccccc1` (stereo not drawn), the TGI in [1], in [2], in [3], in test [4], in [5] and in test [6] was over 100 µM throughout. The TGI in [10], in [7], in test [8] and in test [9] was over 100 µM in each case.
As to `C[C@]12CCNC(=O)C=C1CC[C@@H]1C2CC[C@@]2(C)C1CC[C@@H]2OC(=O)COc1ccc(N(CCCl)CCCl)cc1` (stereo partly drawn), the TGI was 29.5 µM in test [1]; 18.6 µM in test [2]; 33.4 µM in [3]; 50.7 µM in test [4]; 3.19 µM in [5]; over 70 µM in test [6]. For the same compound, the TGI in test [10] worked out at 36.3 µM; in test [7] it was 22.2 µM; in test [8], 24.6 µM; in test [9], 40.3 µM.
With `N#Cc1ccc2cc3c(cc2c1)OCO3`, the TGI in test [1], in [2], in [3], in test [4], in test [5] and in test [6] was over 100 µM in each case. In addition, the TGI in [10] and in test [7] was over 100 µM each time.
`C/C=C/COC(=O)CO[N+](=O)[O-]`: the TGI in test [1], in test [2], in test [3], in test [4], in test [5] and in test [7] was over 100 µM in each case. In addition, the TGI in [8] and in test [9] was over 100 µM in each case.
Regarding `CN(/N=C/c1cccc2cccnc12)c1c([N+](=O)[O-])cc([N+](=O)[O-])cc1[N+](=O)[O-]`, the TGI in test [1], in [2], in [3], in test [4], in test [5] and in test [6] was over 100 µM each time. Further, the TGI in test [10], in [7], in test [8] and in test [9] was over 100 µM throughout.
For the compound `O=C1c2ccccc2C(=O)c2sc(Nc3ccccc3Cl)nc21`, the TGI in [1] came to 41 µM; in [2] it was 3.17 µM; in test [3] it was 28.3 µM; in test [4], 28.1 µM; in test [5], 27.9 µM; in test [6], 40.8 µM. The TGI in test [10] was 30.2 µM; in test [7], 33.3 µM; in test [8], 28 µM; in test [9] it was 22.2 µM.
For the compound `Cc1ccc(C)c(NC(=O)CC2SC(=Nc3ccccc3Cl)NC2=O)c1` (stereo not drawn), the TGI in [1], in test [2], in [3], in [4], in [5] and in [6] was over 100 µM in each case. The TGI in test [10], in test [7], in test [8] and in test [9] was over 100 µM in each case.
For `CC(=O)OC1CC[C@@]2(C)C(CC[C@]3(C)C2CC=C2[C@@H]4C(C)[C@H](C)CCC4(C)CCC23C)[C@@]1(C)C(=O)O` (stereo partly drawn), the TGI was 33.3 µM in test [1]; 51 µM in test [2]; 46.9 µM in [3]; 53.1 µM in [4]; 52.9 µM in test [5]; 65.6 µM in test [6]. Further, the TGI came out at 52 µM in test [10], 43.1 µM in test [7], 49 µM in test [8] and 43.3 µM in [9].
As for `COC1OC(C)C2OC(C)(C)OC2C1OC(C)=O` (stereo not drawn), the TGI in test [1], in test [2], in test [3], in test [4], in test [5] and in [6] was over 100 µM throughout. Further, the TGI in [10], in test [7] and in [8] was over 100 µM throughout.
Regarding `CCCCCCCCCCCCCC(=O)CSCCNC(=O)CCNC(=O)[C@@H](O)C(C)(C)COP(=O)(O)OP(=O)(O)OCC1OC(n2cnc3c(N)ncnc32)C(O)C1OP(=O)(O)O` (stereo partly drawn), the TGI in test [1] came out at 83.1 µM; in test [2], 35.3 µM; in test [3], 28.6 µM; in test [4] it was 35.2 µM; in test [5], 30.1 µM; in [6] it was 36.5 µM. Besides, the TGI in [10] was determined as 34.3 µM; in [7], 32.6 µM; in [8], 34.6 µM; in test [9], 41.3 µM.
In the case of `CN(C)CCNC(=O)c1cccc2ccc(-c3ccc(-c4ccccc4)cc3)nc12`, the TGI in test [1] was 13.9 µM; in [2], 3.23 µM; in test [3], over 44.9 µM; in test [4] it was 25.1 µM; in test [5], 3.39 µM; in test [6], 28.3 µM. In addition, the TGI in [10] is 3.29 µM; in test [7] it was 10.3 µM; in [8], 3.61 µM; in [9] it was 24.6 µM.
Turning to `CCN(CC)CCn1[nH]c2c3ccc(=O)cc3sc3c(NCCN)ccc1c32`, the TGI in test [1] turned out to be 4.87 µM; in test [2] it was 1.48 µM; in [3], 8.57 µM; in test [4] it was 4.29 µM; in test [5], 8.94 µM; in [6], 4.49 µM. The TGI came out at 3.28 µM in test [10], 2.3 µM in test [7], 2.73 µM in [8] and 7.13 µM in test [9].
